A short description of the series: solvent given as SMILES.

Experimental findings from the Deep4Chem optical property database are described below.

The structures appear in SMILES notation.

As for `O=C1c2ccccc2-c2ccc(N3CCN(c4ccccc4)CC3)c3cccc1c23`, the fluorescence lifetime turned out to be 7.85 ns (in C1CCCCC1); 2.59 ns (in C1CCOC1); 8.98 ns (in C1COCCO1); 0.09 ns (in CC1COC(=O)O1); 0.03 ns (in CC#N); 0.09 ns (in CC(C)=O). Moreover, the fluorescence lifetime runs as follows: (in CCCCCCCCO) 0.29 ns; (in CCCCCO) 0.22 ns; (in CCCCO) 0.16 ns; (in CCCO) 0.22 ns; (in CCO) 0.07 ns; (in CCOC(C)=O) 2 ns. Moreover, the fluorescence lifetime is, setting by setting: (in CN(C)C=O) 0.06 ns; (in CO) 0.03 ns; (in CS(C)=O) 0.06 ns; (in Cc1ccccc1) 9.06 ns; (in ClC(Cl)Cl) 8.88 ns.
With `OB(O)c1ccc(-c2ccc(N(c3ccccc3)c3ccccc3)cc2)cc1`, the fluorescence lifetime was found to be 1.59 ns (in C1CCCCC1); 2.14 ns (in C1CCOC1); 2.24 ns (in CC#N); 2.39 ns (in CCO); 2.21 ns (in CCOC(C)=O); 1.69 ns (in CCOCC). The fluorescence lifetime (in CO) amounted to 2.97 ns.
As to `CCCCOc1ccc(-c2cc3c(o2)c(-c2ccc(OCCCC)cc2)c2n3[B-](F)(F)[N+]3=Cc4c(-c5ccc(OCCCC)cc5)c5oc(-c6ccc(OCCCC)cc6)cc5n4[B-](F)(F)[N+]3=C2)cc1`, the fluorescence lifetime (in ClCCl) came out at 2.59 ns.
`c1ccc2c(c1)-c1ccccc1C21c2ccccc2-c2c1c1c3ccccc3ccc1c1ccccc21` returned a fluorescence lifetime (in Cc1ccccc1) of 3.14 ns.
For the setting “in CC#N”, `O=C(O)c1ccccc1-c1nc(-c2ccccc2)c2ccccn12` showed a fluorescence lifetime of 5.5 ns.
Regarding `Cc1ccc2c(c1)C(=O)c1ccncc1-2`, the fluorescence lifetime runs as follows: (in CC#N) 5.3 ns; (in CCOC(C)=O) 7.4 ns; (in Cc1ccccc1) 6.6 ns; (in ClCCl) 5.9 ns.
As for `Cc1cc(C)n2c1C=C1c3ccccc3C(c3ccc[nH]3)=[N+]1[B-]2(F)F`, the fluorescence lifetime was found to be 7.36 ns (in C1CCOC1); 7.41 ns (in CC#N); 7.93 ns (in CCCCCC); 7.47 ns (in CO); 6.82 ns (in Cc1ccccc1); 7.28 ns (in ClCCl).
Regarding `CCOC(=O)CCCCCn1c2ccc(Cl)cc2c(=O)c2cc3c(cc21)c(=O)c1cc(Cl)ccc1n3CCCCCC(=O)OCC`, the fluorescence lifetime (in CO) is 22.1 ns.
On to `Clc1nc(Cl)nc(Nc2cc3ccc4cccc5ccc(c2)c3c45)n1`, for which the fluorescence lifetime (in CCCCCCC) is 122 ns.
As to `O=C1OC(=O)c2ccc(N(c3ccccc3)c3ccc4ccc5cccc6ccc3c4c56)c3cccc1c23`, the fluorescence lifetime by setting is: (in CCCCCC) 4.36 ns; (in c1ccccc1) 1.17 ns.
As for `N#Cc1c[nH]c2ccccc12`, the fluorescence lifetime reads like this: (in C1CCOC1) 3.1 ns; (in C1COCCO1) 3 ns; (in CC#N) 1.8 ns; (in CS(C)=O) 0.2 ns.
Regarding `COc1nc(Nc2ccc3c4c(cccc24)C(=O)c2ccccc2-3)nc(OC)n1`, the fluorescence lifetime by setting is: (in CC#N) 9.2 ns; (in CC(C)=O) 8.5 ns; (in CC(C)O) 7.7 ns; (in CCCCOCCCC) 3.7 ns; (in CCOC(C)=O) 7.3 ns; (in CCOCC) 4.9 ns. For the same compound, the fluorescence lifetime by setting is: (in CO) 7.4 ns; (in Cc1ccccc1) 5.6 ns; (in Clc1ccccc1) 7.4 ns; (in N#Cc1ccccc1) 7 ns; (in O=C1CCCCC1) 7.4 ns.
`CC[n+]1nc2cc3c4c(c2c2ccccc21)CCCN4CCC3` returned a fluorescence lifetime (in O) of 3.6 ns.
Take `CC1=[N+]2C(=C(c3ccccc3C)c3ccc(C)n3[B-]2(F)F)C=C1c1cc2n(c1)[B-](F)(F)[N+]1=CC=CC1=C2c1c(C)cc(C)cc1C`: the fluorescence lifetime was found to be 2.84 ns (in C1CCCCC1) and 0.81 ns (in CCOC(C)=O).
Take `ClP1(Cl)=NP(Cl)(Cl)=NP(Cl)(Oc2ccc3ccc4cccc5ccc2c3c45)=N1` (centres undefined): the fluorescence lifetime (in ClCCl) was 3.29 ns.
Where the note is “in CC#N”, `C(=C\c1ccccc1)/c1ccccc1` came in with a fluorescence lifetime of 0.07 ns.
As for `O=P1(c2ccccc2)c2cc(N3c4ccccc4Sc4ccccc43)ccc2-c2ccc(N3c4ccccc4Sc4ccccc43)cc21`, the fluorescence lifetime (in c1ccc2c(c1)c1ccccc1n2-c1ccc(-c2ccc(-n3c4ccccc4c4ccccc43)cc2)cc1) was 46.1 ns.
`O=C(O)c1ccccc1Nc1cccc(C(F)(F)F)c1` displayed a fluorescence lifetime (in C1CCCCC1) of 2.93 ns; a fluorescence lifetime (in C1CCOC1) of 4.54 ns; a fluorescence lifetime (in C1COCCO1) of 3.97 ns; a fluorescence lifetime (in CC#N) of 4.04 ns; a fluorescence lifetime (in CCOC(C)=O) of 4.65 ns; a fluorescence lifetime (in CN(C)C=O) of 6.28 ns. The fluorescence lifetime stood at 5.08 ns (in CO) and 3.86 ns (in ClC(Cl)Cl).
With `CC[N+](CC)=c1ccc2c(-c3ccccc3C(=O)O)c3c(=O)oc4c5c6c(cc4c3oc-2c1)CCCN6CCC5`, the fluorescence lifetime (in CCO) turned out to be 0.47 ns, the fluorescence lifetime (in ClC(Cl)Cl) was 2.87 ns and the fluorescence lifetime (in O) was 0.16 ns.
The compound `O=c1cc[nH]c(=O)[nH]1` returned a fluorescence lifetime (in CC#N) of 0.0001 ns.
In turn, `COc1ccc(C#CC2=C3CCc4ccccc4C3=[O+][B-](F)(F)O2)cc1` had a fluorescence lifetime (in ClCCl) of 1.49 ns.
The same measure, in the same setting: the result for `CC1=C(c2ccc(N(C)C)cc2)C(C)=[N+]2C1=C(c1c(-c3ccccn3)nc3ccccn13)c1c(C)c(-c3ccc(N(C)C)cc3)c(C)n1[B-]2(F)F` reads 0.2 ns; that for `CN(C)c1ccc(C2=Cc3ccccc3P2(=O)c2ccccc2)cc1` (centres undefined), 6.1 ns.
Where the note is “in Cc1ccccc1”, `COc1ccc(C2=C3C(C)=CC(C)=[N+]3[B-](F)(F)n3c(C)cc(C)c32)cc1` registered a fluorescence lifetime of 4.86 ns.
`CC1(C)CC(/C=C/c2ccc(-n3ccnc3)cc2)=CC(=C(C#N)C#N)C1`: the fluorescence lifetime (in CCO) worked out at 0.03 ns.
`CC1(C)C(=O)C=Cc2ccc(N3CCC3)cc21`: the fluorescence lifetime (in O) was determined as 3.83 ns.
Turning to `COC(=O)c1cc(=O)n(C)c2cc(-c3ccccc3OC)sc12`, the fluorescence lifetime (in ClCCl) stood at 1.31 ns.
With `COc1ccc(-c2oc3cccc4c5c(-c6ccc(OC)cc6)c(=N)oc6cccc(c2c34)c65)cc1`, the fluorescence lifetime (in ClC(Cl)Cl) stood at 1.5 ns.
For the compound `C(=C\c1ccccn1)/c1ccc(N(c2ccc(/C=C/c3ccccn3)cc2)c2ccc(-c3nc4ccccc4nc3-c3ccc(N(c4ccc(/C=C/c5ccccn5)cc4)c4ccc(/C=C/c5ccccn5)cc4)cc3)cc2)cc1`, for the setting “in C1CCOC1”, the fluorescence lifetime turned out to be 1.17 ns.
With `CCOC(=O)CCCCCn1c2ccccc2c(=O)c2cc3c(cc21)c(=O)c1ccccc1n3CCCCCC(=O)OCC`, the fluorescence lifetime (in CO) came out at 21.6 ns.
On to `C[Si](C)(C)C#CC(C#C[Si](C)(C)C)=Cc1ccc(C=C(C#C[Si](C)(C)C)C#C[Si](C)(C)C)s1`, for which, where the note is “in ClC(Cl)Cl”, the fluorescence lifetime came out at 0.3 ns.
Consider `CCC1=C(C)C2=Cc3cc(I)c(I)n3[B-](F)(F)[N+]2=C1C`, for which the fluorescence lifetime (in C1CCCCC1) was 1.04 ns; the fluorescence lifetime (in CC(C)=O) is 0.753 ns; the fluorescence lifetime (in CCO) worked out at 0.943 ns; the fluorescence lifetime (in CCOC(C)=O) was 0.836 ns; the fluorescence lifetime (in CO) stood at 0.848 ns; the fluorescence lifetime (in OCC(F)(F)F) is 0.676 ns.
The compound `F[B-]1(F)OC(c2cc3c4c(c2)CCCN4CCC3)=Cc2cccc[n+]21` returned a fluorescence lifetime (in ClC(Cl)Cl) of 3.19 ns.
As to `Nc1ccc2cc3ccccc3cc2c1`, under “in C1CCCCC1”, the fluorescence lifetime stood at 33 ns.
For the compound `CCCCn1c(-c2ccc(-c3nnc(-c4ccc5ccccc5c4)o3)cc2)nc2c3ccccc3c3ccccc3c21`, the fluorescence lifetime (in ClCCl) came out at 1.78 ns.
